Experiments:
MT1 (ML1A) (h) = MT1 (ML1A) (h) (Homo sapiens (Human), UniProt P48039); test: ExpresSProfile: melatonin receptor 1, agonist radioligand; assay type: binding; conditions: Reference Compound
5-HT2B (h) = 5-HT2B (h) (Homo sapiens (Human), UniProt P41595); test: ExpresSProfile: 5-hydroxytryptamine receptor 2B, agonist radioligand; assay type: binding; conditions: Reference Compound
NK2 (h) = NK2 (h) (Homo sapiens (Human), UniProt P21452); test: ExpresSProfile: neurokinin receptor 2, agonist radioligand; assay type: binding; conditions: Reference Compound
Sequence of NK2 (h) (P21452 whole entry): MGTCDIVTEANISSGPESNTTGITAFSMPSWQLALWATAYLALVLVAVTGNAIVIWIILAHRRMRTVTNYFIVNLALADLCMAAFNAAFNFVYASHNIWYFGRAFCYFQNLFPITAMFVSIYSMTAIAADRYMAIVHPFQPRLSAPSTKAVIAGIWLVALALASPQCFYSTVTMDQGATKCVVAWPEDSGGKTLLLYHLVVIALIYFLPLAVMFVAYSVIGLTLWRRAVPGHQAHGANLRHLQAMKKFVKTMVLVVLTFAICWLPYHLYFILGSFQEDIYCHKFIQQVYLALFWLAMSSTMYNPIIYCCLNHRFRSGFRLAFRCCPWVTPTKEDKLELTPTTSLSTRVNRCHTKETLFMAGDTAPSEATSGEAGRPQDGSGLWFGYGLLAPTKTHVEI

Cl-channel (GABA-gated) = test: ExpresSProfile: Cl-channel, antagonist radioligand; assay type: binding; conditions: Reference Compound
NTR1 [1] = target: T1, NTR1 (Homo sapiens (Human), UniProt P30989); test: Radioligand binding assay NTR1 (example part II); conditions: 0.05 nM 125I-(Tyr3-neurotensin), 60 min at 4° C.; read-out: IC50 [nM] RLB
T1 sequence (P30989 whole entry): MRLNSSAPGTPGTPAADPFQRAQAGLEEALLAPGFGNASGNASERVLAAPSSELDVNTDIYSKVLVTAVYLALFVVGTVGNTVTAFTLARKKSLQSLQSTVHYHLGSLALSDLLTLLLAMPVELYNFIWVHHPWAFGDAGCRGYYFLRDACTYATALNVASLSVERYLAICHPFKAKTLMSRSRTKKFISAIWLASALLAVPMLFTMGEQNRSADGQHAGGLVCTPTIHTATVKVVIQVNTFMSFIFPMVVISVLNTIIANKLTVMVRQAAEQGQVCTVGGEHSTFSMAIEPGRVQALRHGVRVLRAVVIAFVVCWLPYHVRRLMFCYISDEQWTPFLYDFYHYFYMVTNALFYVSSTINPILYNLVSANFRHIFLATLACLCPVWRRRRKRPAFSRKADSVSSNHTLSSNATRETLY
Experimental: In order to determine the binding affinity of compounds comprising a radiolabel for NTR1, a radioligand binding assay was carried out. A radioligand is a radioactive biochemical substance that is used for diagnosis or for research-oriented study of cellular receptor systems of the body. In […] systems it is often used to quantify the binding of a test molecule to the binding site of radioligand. The higher the affinity of the molecule, the more radioligand is displaced from the binding site. The amount of bound radioligand can be measured by scintillation counting and thereby quantified. This assay is commonly used to calculate binding constants of molecules to receptors.
The NTR1 radioligand binding assay was performed by Cerep (Celle l'Evescault, France; Catalog reference 0109) according to Vita et al., FEBS Lett., 1993, 317, 139-142. NTR1 was prepared from CHO cells recombinantly expressing the human receptor and incubated with 0.05 nM ^125I-(Tyr^3-neurotensin) and serial dilutions of the test compounds. […] The result for each test compound is expressed as IC50 concentration and provides a measure for the affinity of the test compound for NTR1.

NTR1 [2] = target: T1, NTR1; test: Functional Ca2+ mobilisation assay (example part II); assay type: cell-based; conditions: antagonist assay
From the text: Ca^2+ ions are usually kept at nanomolar levels in the cytosol of cells, and act in a number of signal transduction pathways as second messengers. […] Changes in calcium ion concentration in standard assay protocols can be readily detected with fluorescent dyes that emit light when changes in intracellular Ca2^+ ion concentration occur. Given the transient nature of these responses, they are often read with instrumentation that has ‘inject and read’ capability.
HT29 or NTR1-expressing HEK293 cells were trypsinized and seeded into black flat clear-bottom 96-well plates (Corning, Amsterdam, The Netherlands) at 6×10^5 cells per well. After 24 h incubation at 37° C. and 5% CO2, cells were washed twice with wash buffer (130 mM NaCl, 5 mM KCl, 10 mM Hepes, 2 mM CaCl2, 10 mM Glucose, pH 7.4) and loaded with 100 μl of Ca5 dye (Molecular Devices, Biberach, Germany) for 1 h at 37° C. and 5% CO2. For agonist assays, serial dilutions of agonistic substances were added to the cells loaded with dye and the change of the fluorescent signal was recorded continually for approx. 90 s using a FlexStation II (Molecular Devices, Biberach, Germany). Addition of wash buffer served as a control. Thus, EC50 concentrations for each compound were computed and provided a measure for the potency of the substance. For antagonist assays, cells loaded with 100 μl of Ca5-dye were pre-incubated with serial dilutions of antagonistic substances for 30 min, before the EC80-concentration of agonist was added to the cells and the change of the fluorescent signal was recorded continually for approx. 90 s. Thus, IC50 concentrations were computed for each compound and provided a measure for the inhibitory activity of the compounds at the NTR1.

mu (MOP) (h) = mu (MOP) (h) (Homo sapiens (Human), UniProt P35372); test: ExpresSProfile: mu opioid receptor, agonist radioligand; assay type: binding; conditions: Reference Compound
5-HT1B = 5-HT1B (Rattus norvegicus, UniProt P28564); test: ExpresSProfile: 5-hydroxytryptamine receptor 1B, antagonist radioligand; assay type: binding; conditions: Reference Compound
5-HT6 (h) = 5-HT6 (h) (Homo sapiens (Human), UniProt P50406); test: ExpresSProfile: 5-hydroxytryptamine receptor 6, agonist radioligand; assay type: binding; conditions: Reference Compound
M2 (h) = M2 (h) (Homo sapiens (Human), UniProt P08172); test: ExpresSProfile: muscarinic receptor 2, antagonist radioligand; assay type: binding; conditions: Reference Compound
5-HT3 (h) = 5-HT3 (h) (Homo sapiens (Human), UniProt P46098); test: ExpresSProfile: 5-hydroxytryptamine channel 3, antagonist radioligand; assay type: binding; conditions: Reference Compound
Sequence of 5-HT3 (h) (P46098 24-478): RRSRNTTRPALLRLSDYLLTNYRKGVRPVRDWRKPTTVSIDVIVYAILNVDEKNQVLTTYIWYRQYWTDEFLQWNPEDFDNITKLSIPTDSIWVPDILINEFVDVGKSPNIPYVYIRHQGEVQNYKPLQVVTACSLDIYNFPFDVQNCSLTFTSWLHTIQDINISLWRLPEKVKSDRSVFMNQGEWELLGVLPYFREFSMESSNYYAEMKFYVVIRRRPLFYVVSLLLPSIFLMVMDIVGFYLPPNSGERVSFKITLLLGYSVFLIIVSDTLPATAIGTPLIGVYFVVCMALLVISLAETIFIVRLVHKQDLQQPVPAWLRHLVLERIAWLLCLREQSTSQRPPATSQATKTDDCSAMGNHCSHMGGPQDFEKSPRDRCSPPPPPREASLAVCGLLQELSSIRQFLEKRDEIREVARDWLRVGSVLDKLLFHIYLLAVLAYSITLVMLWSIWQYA

beta 1 (h) = beta 1 (h) (Homo sapiens (Human), UniProt P08588); test: ExpresSProfile: beta1 adrenergic receptor, agonist radioligand; assay type: binding; conditions: Reference Compound
Sequence of beta 1 (h) (P08588 whole entry): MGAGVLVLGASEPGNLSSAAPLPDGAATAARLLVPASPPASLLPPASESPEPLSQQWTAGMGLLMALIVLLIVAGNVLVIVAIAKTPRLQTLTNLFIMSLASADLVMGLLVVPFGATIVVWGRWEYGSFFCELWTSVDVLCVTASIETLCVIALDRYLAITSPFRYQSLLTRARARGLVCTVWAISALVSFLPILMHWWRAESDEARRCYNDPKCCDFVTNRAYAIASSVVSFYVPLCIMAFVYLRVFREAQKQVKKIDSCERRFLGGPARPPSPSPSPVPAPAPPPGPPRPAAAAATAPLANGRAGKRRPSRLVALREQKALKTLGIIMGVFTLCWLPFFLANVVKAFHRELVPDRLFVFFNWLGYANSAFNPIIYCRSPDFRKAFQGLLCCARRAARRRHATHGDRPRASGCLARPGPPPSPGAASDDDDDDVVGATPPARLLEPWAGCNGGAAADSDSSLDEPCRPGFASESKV

NK3 (h) = NK3 (h) (Homo sapiens (Human), UniProt P29371); test: ExpresSProfile: neurokinin receptor 3, antagonist radioligand; assay type: binding; conditions: Reference Compound
5-HT2A (h) = 5-HT2A (h) (Homo sapiens (Human), UniProt P28223); test: ExpresSProfile: 5-hydroxytryptamine receptor 2A, antagonist radioligand; assay type: binding; conditions: Reference Compound
Sequence of 5-HT2A (h) (P28223 whole entry): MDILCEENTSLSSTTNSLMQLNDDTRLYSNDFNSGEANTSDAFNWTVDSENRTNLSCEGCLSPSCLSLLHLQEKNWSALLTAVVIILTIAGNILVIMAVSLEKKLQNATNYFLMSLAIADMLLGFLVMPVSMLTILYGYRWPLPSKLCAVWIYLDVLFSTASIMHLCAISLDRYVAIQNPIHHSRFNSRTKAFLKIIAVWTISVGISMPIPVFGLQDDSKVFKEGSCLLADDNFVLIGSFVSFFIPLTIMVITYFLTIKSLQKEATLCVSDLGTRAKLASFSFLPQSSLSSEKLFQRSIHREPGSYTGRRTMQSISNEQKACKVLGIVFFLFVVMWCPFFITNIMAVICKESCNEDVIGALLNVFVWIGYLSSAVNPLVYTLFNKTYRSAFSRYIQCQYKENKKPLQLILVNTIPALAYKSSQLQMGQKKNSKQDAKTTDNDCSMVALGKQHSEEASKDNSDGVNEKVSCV

EP4 (h) = EP4 (h) (Homo sapiens (Human), UniProt P35408); test: ExpresSProfile: prostaglandin e receptor type 4, agonist radioligand; assay type: binding; conditions: Reference Compound
Sequence of EP4 (h) (P35408 whole entry): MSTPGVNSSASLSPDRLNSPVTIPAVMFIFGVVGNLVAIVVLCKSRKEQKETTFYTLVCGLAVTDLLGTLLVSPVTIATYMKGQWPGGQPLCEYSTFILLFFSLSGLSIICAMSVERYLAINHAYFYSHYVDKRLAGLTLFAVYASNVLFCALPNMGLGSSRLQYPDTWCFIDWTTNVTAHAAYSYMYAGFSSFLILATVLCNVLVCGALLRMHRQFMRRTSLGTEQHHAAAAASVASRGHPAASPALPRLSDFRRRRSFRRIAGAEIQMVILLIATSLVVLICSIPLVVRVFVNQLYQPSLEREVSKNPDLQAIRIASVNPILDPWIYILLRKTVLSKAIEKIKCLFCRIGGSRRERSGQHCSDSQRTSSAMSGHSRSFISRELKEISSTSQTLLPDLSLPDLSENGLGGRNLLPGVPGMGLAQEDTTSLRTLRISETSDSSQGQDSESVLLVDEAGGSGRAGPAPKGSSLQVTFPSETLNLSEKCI

KV channel = test: ExpresSProfile: KV channel, antagonist radioligand; assay type: binding; conditions: Reference Compound
sst (non-selective) = test: ExpresSProfile: somatostatin receptor, agonist radioligand; assay type: binding; conditions: Reference Compound
M3 (h) = M3 (h) (Homo sapiens (Human), UniProt P20309); test: ExpresSProfile: muscarinic receptor 3, antagonist radioligand; assay type: binding; conditions: Reference Compound
Sequence of M3 (h) (P20309 whole entry): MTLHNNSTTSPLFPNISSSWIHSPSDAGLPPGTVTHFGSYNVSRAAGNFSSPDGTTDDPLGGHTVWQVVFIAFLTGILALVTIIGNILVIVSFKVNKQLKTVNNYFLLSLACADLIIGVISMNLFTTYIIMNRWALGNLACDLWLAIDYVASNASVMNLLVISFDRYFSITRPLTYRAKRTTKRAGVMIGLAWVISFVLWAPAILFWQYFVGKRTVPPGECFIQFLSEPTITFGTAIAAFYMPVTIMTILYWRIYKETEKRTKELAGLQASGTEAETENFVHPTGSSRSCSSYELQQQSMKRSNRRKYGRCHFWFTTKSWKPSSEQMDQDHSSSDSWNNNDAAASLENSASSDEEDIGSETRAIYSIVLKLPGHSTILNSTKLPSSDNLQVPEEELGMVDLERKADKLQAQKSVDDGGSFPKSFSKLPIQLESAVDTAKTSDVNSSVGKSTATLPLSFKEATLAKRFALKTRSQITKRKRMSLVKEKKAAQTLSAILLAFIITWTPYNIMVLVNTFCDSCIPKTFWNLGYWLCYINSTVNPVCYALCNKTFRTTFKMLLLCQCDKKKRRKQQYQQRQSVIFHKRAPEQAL

dopamine transporter (h) = dopamine transporter (h) (Homo sapiens (Human), UniProt Q01959); test: ExpresSProfile: dopamine transporter, antagonist radioligand; assay type: binding; conditions: Reference Compound
Sequence of dopamine transporter (h) (Q01959 whole entry): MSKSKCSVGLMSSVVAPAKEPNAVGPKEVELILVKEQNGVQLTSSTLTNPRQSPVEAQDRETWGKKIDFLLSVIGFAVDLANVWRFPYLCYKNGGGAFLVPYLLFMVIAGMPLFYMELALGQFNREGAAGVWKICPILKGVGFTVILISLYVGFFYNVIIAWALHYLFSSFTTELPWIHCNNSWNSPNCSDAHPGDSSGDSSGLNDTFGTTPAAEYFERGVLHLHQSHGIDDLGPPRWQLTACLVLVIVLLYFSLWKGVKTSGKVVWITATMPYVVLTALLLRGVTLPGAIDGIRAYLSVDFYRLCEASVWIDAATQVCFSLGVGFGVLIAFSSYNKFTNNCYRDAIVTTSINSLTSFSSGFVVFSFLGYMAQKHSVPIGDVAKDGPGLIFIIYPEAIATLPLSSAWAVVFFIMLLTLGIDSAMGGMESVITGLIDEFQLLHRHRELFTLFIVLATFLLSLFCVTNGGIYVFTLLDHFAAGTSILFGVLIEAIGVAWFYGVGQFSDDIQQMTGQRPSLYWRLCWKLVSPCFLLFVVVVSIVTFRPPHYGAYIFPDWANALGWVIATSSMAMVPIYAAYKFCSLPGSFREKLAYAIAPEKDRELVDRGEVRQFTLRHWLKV

SKCa channel = test: ExpresSProfile: SKCa channel, antagonist radioligand; assay type: binding; conditions: Reference Compound
alpha 1 (non-selective) = test: ExpresSProfile: alpha1 adrenergic receptor, antagonist radioligand; assay type: binding; conditions: Reference Compound
alpha 2 (non-selective) = test: ExpresSProfile: alpha2 adrenergic receptor, antagonist radioligand; assay type: binding; conditions: Reference Compound

Sequence of 5-HT2B (h) (P41595 whole entry): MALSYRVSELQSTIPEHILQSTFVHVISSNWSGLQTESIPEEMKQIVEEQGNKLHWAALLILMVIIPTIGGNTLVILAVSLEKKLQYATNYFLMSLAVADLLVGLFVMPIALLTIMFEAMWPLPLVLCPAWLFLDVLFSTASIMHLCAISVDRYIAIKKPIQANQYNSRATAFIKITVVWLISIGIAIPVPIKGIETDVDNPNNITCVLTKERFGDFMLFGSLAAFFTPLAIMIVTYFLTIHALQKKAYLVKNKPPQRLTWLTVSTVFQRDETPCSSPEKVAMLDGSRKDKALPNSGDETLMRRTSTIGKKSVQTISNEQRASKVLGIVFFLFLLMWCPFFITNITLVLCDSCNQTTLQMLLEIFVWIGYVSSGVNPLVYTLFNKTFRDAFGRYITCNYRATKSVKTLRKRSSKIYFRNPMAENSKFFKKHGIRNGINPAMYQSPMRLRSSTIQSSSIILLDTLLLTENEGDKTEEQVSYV
Sequence of MT1 (ML1A) (h) (P48039 whole entry): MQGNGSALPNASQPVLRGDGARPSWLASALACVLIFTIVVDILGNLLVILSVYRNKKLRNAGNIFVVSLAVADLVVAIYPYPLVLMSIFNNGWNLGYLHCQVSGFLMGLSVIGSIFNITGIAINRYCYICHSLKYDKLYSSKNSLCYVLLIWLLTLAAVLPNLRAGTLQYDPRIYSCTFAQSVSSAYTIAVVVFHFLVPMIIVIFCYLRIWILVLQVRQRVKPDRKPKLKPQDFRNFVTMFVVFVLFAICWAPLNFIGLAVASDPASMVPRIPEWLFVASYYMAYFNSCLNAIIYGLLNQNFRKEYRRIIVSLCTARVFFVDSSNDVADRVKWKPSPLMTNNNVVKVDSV

For `COc1ccc2[nH]cc(CCNC(C)=O)c2c1` [melatonin], the “nH Ref” value (MT1 (ML1A) (h)) was 0.9.

With `COc1cc(CC(C)N)c(OC)cc1I` (racemic) [(±)DOI] the “nH Ref” value (5-HT2B (h)) was 1.0 and the Ki (5-HT2B (h); read-out: Ki Ref) was 3.1 nM.

`CCCC[C@H](NC(=O)[C@H](CC(C)C)NC(=O)CNC(=O)[C@@H](NC(=O)[C@H](Cc1ccccc1)NC(=O)[C@H](CO)NC(=O)[C@@H](N)CC(=O)O)C(C)C)C(N)=O` [[Nleu10]-NKA (4-10)] was tested, and the “nH Ref” value (NK2 (h)) was 0.8.

`C=C(C)[C@@H]1[C@H]2OC(=O)[C@@H]1[C@]1(O)C[C@H]3O[C@]34C(=O)O[C@H]2[C@]14C` [picrotoxinin] was tested, and the “nH Ref” value (Cl-channel (GABA-gated)) was 0.9.

With `COc1cccc(OC)c1-c1cc(C(=O)NC2(C(=O)O)C3CC4CC(C3)CC2C4)nn1-c1ccc(C(=O)N(C)CCCN(C)CCCN(C)C(=O)CCC(C(=O)O)N2CCN(CC(=O)O)CCN(CC(=O)O)CC2)cc1C(C)C` (centres unmarked) [(IIId), 2-{[1-(4-{[3-({3-[(NODAGA)-methyl-amino]-propyl}-methyl-amino)-propyl]-methyl-carbamoyl}-2-isopropyl-phenyl)-5-(2,6-dimethoxy-phenyl)-1H-pyrazole-3-carbonyl]-amino}-adamantane-2-carboxylic acid] the IC50 (NTR1 [1]) was 3.7 nM and the IC50 (NTR1 [2]) was 14.5 nM.

For `C[C@@H](NC(=O)[C@@H](N)Cc1ccc(O)cc1)C(=O)NCC(=O)N(C)[C@@H](Cc1ccccc1)C(=O)NCCO` [DAMGO], the “nH Ref” value (mu (MOP) (h)) was 1.0.

For `NCCc1c[nH]c2ccc(O)cc12` [serotonin], the “nH Ref” value (5-HT1B) was 0.9 and the “nH Ref” value (5-HT6 (h)) was 0.8.

`COc1ccccc1CNCCCCCCNCCCCCCCCNCCCCCCNCc1ccccc1OC` [methoctramine] was tested, and the “nH Ref” value (M2 (h)) was 0.9.

For `CN1[C@@H]2CC[C@H]1C[C@@H](OC(=O)c1cc(Cl)cc(Cl)c1)C2` [MDL 72222], the “nH Ref” value (5-HT3 (h)) was 0.8.

With `CC(C)NCC(O)COc1ccc(CC(N)=O)cc1` (centres unmarked) [atenolol] the “nH Ref” value (beta 1 (h)) was 0.9.

`CC[C@H](NC(=O)c1c(C)c(-c2ccccc2)nc2ccccc12)c1ccccc1` [SB 222200] was tested, and the “nH Ref” value (NK3 (h)) was 0.9.

In the case of `COc1cccc(OC)c1-c1cc(C(=O)NC2(C(=O)O)C3CC4CC(C3)CC2C4)nn1-c1ccc(C(=O)N(C)CCCN(C)CCCN(C)C(=O)CCC(=O)NCCCOCCOCCOCCCNC(=O)CCC(C(=O)O)N2CCN(CC(=O)O)CCN(CC(=O)O)CC2)cc1C(C)C` (centres unmarked) [(IIIe), 2-{[1-(4-{[3-({3-[(NODAGA-Ttds)-methyl-amino]-propyl}-methyl-amino)-propyl]-methyl-carbamoyl}-2-isopropyl-phenyl)-5-(2,6-dimethoxy-phenyl)-1H-pyrazole-3-carbonyl]-amino}-adamantane-2-carboxylic acid], the IC50 (NTR1 [1]) is reported as 4.9 nM and the IC50 (NTR1 [2]) is reported as 21.4 nM.

For `O=C(c1ccc(F)cc1)C1CCN(CCn2c(=O)[nH]c3ccccc3c2=O)CC1` [ketanserin], the “nH Ref” value (5-HT2A (h)) was 1.0.

In the case of `CCCCC[C@H](O)/C=C/[C@H]1[C@H](O)CC(=O)[C@@H]1C/C=C\CCCC(=O)O` [PGE2], the “nH Ref” value (EP4 (h)) is reported as 1.1.

In the case of `COc1cccc(OC)c1-c1cc(C(=O)NC2(C(=O)O)C3CC4CC(C3)CC2C4)nn1-c1ccc(C(=O)N(CCCNC(=O)CCC(=O)NCCCOCCOCCOCCCNC(=O)CN2CCN(CC(=O)O)CCN(CC(=O)O)CCN(CC(=O)O)CC2)CCCN(C)C)cc1C(C)C` (centres unmarked) [(Vb), 2-{[5-(2,6-Dimethoxy-phenyl)-1-(4-{(3-dimethylamino-propyl)-[3-(DOTA-Ttds-amino)-propyl]-carbamoyl}-2-isopropyl-phenyl)-1H-pyrazole-3-carbonyl]-amino}-adamantane-2-carboxylic], the IC50 (NTR1 [1]) is reported as 2.4 nM and the IC50 (NTR1 [2]) is reported as 26 nM.

`COc1cccc(OC)c1-c1cc(C(=O)NC2(C(=O)O)C3CC4CC(C3)CC2C4)nn1-c1ccc(C(=O)N(C)CCCN(C)CCCN(C)C(=S)Nc2ccc(NC(=S)NCCCCCN(O)C(=O)CCC(=O)NCCCCCN(O)C(=O)CCC(=O)NCCCCCN(O)C(C)=O)cc2)cc1C(C)C` (centres unmarked) [(IIIf), 2-({5-(2,6-Dimethoxy-phenyl)-1-[2-isopropyl-4-(methyl-{3-[methyl-(3-{1-methyl-3-[4-(3-DFO-thioureido)-phenyl]-thioureido}-propyl)-amino]-propyl}-carbamoyl)-phenyl]-1H-pyrazole-3-carbonyl}-amino)-adamantane-2-carboxylic] was tested, and the IC50 (NTR1 [1]) was 3 nM and the IC50 (NTR1 [2]) was 17.5 nM.

For “alpha-dendrotoxin (QPRRKLCILHRNPGRCYDKIPAFYYNQKKKQCERFDWSGCGGNSNRFKTIEECRRTCIG)”, the “nH Ref” value (KV channel) was 1.7 and the Ki (KV channel; read-out: Ki Ref) was 0.2 nM.

In the case of `COc1cccc(OC)c1-c1cc(C(=O)NC2(C(=O)O)C3CC4CC(C3)CC2C4)nn1-c1ccc(C(=O)N(C)CCCN(C)CCCN(C)C(=O)c2ccc(F)cc2)cc1C(C)C` (centres unmarked) [(IIIg), 2-{[5-(2,6-Dimethoxy-phenyl)-1-(4-{[3-({3-[(4-fluoro-benzoyl)-methyl-amino]-propyl}-methyl-amino)-propyl]-methyl-carbamoyl}-2-isopropyl-phenyl)-1H-pyrazole-3-carbonyl]-amino}-adamantane-2-carboxylic acid], the IC50 (NTR1 [1]) is reported as 2.3 nM and the IC50 (NTR1 [2]) is reported as 14.5 nM.

`COc1cccc(OC)c1-c1cc(C(=O)NC2(C(=O)O)C3CC4CC(C3)CC2C4)nn1-c1ccc(C(=O)N(CCCN)CCCN(C)C)cc1C(C)C` (centres unmarked) [(V), 2-{[1-{4-[(3-Amino-propyl)-(3-dimethylamino-propyl)-carbamoyl]-2-isopropyl-phenyl}-5-(2,6-dimethoxy-phenyl)-1H-pyrazole-3-carbonyl]-amino}-adamantane-2-carboxylic acid] gave an IC50 (NTR1 [1]) of 5.3 nM and an IC50 (NTR1 [2]) of 8.95 nM.

With somatostatin-14 the “nH Ref” value (sst (non-selective)) was 0.8 and the Ki (sst (non-selective); read-out: Ki Ref) was 0.11 nM.

For `C[N+]1(C)CCC(OC(=O)C(c2ccccc2)c2ccccc2)CC1.[I-]` [Compound 4-DAMP], the “nH Ref” value (M3 (h)) was 1.1.

For `c1ccc2sc(C3(N4CCCCC4)CCCCC3)cc2c1` [BTCP], the “nH Ref” value (dopamine transporter (h)) was 1.0.

`CC(C)C[C@@H]1NC(=O)[C@H](C)NC(=O)[C@H]([C@@H](C)O)NC(=O)[C@H](CCC(=O)O)NC(=O)[C@@H]2CCCN2C(=O)[C@H](C)NC(=O)[C@H](CCCCN)NC(=O)[C@@H]2CSSC[C@@H](C(=O)N[C@@H](CCC(N)=O)C(=O)N[C@@H](CCC(N)=O)C(=O)N[C@@H](Cc3cnc[nH]3)C(N)=O)NC(=O)[C@H](CCCNC(=N)N)NC(=O)[C@H](CCCNC(=N)N)NC(=O)[C@H](C)NC(=O)[C@H](CSSC[C@H](N)C(=O)N[C@@H](CC(N)=O)C(=O)N2)NC1=O` [apamin] was tested, and the “nH Ref” value (SKCa channel) was 1.3.

With `COc1cc2nc(N3CCN(C(=O)c4ccco4)CC3)nc(N)c2cc1OC` [prazosin] the “nH Ref” value (alpha 1 (non-selective)) was 1.2.

`COC(=O)[C@@H]1[C@H]2C[C@H]3c4[nH]c5ccccc5c4CCN3C[C@@H]2CC[C@@H]1O` [yohimbine] was tested, and the “nH Ref” value (alpha 2 (non-selective)) was 0.7.

— patent publication US10799605B2 (3B PHARMACEUTICALS GMBH, priority 2014, dated 2020)
